Results published in article PMC8910697, “Development of VPC-70619, a Small-Molecule N-Myc Inhibitor as a Potential Therapy for Neuroendocrine Prostate Cancer” (International Journal of Molecular Sciences, 2022).
Read-outs that look alike come from different tables or passages of the source.

Legend:
[1] = test system: N-Myc-Max transcription activity (LNCaP-NMYC cells); test: Myc transcription assay (Cignal Myc reporter, luciferase) in LNCaP-NMYC cells; type: cell-based
[2] = test system: N-Myc-Max transcription activity (LNCaP-NMYC cells); test: as above; type: cell-based; settings: for IC50: Homo sapiens, LNCaP, Table 1, transcriptional assay in LNCaP cells overexpressing N-Myc, read-out: IC50; for transcription inhibition activity (in words): LNCaP-NMYC, screened at 10 µM and 5 µM
Procedure: To determine the optimal substitutions on the free phenyl ring, we used the active scaffold for a second substructure search against the ZINC15 database to identify a set of 181 analogues for further validation (VPC-70617 to -70799, presented in Supplementary Table S1). Compounds were tested for their inhibition of a N-Myc-Max luciferase transcription activity assay at 5 and 10 µM Figure 2a. Herein, we inspected all the proposed substitutions on the scaffold to discern the features required to construct a possible SAR model for inhibitors targeting N-Myc-Max/DBD complex (Figure 2b).
LNCaP-NMYC cells were transfected using TransIT-2020 transfection reagents per the manufacturer’s protocol. Cells were plated at a density of 10,000 cells per well of a 96-well plate. Following 24 h treatment with 5 µM or 10 µM of the compounds, the Myc reporter activity was measured using the Cignal Myc Reporter Assay Kit from Qiagen (#336841) (Hilden, Germany) per the manufacturer’s instructions.

HO15.19 cells = test: Cell viability counter-screen (CellTiter-Glo), Myc-negative HO15.19; type: cell-based; settings: for inhibition at 10 µM: Rattus norvegicus, HO15.19, 10 µM, Myc-negative specificity control
Procedure: (§1) The 54 compounds were tested at 10 µM for their inhibition of the IMR32 human neuroblastoma cell line, in which the MYCN gene is amplified and actively expressed (Table 3). HO15.19 cell line (Myc-negative) was used in parallel as a compound specificity control.
(§2) Viability of N-Myc positive (IMR32and NCI-H660) and negative (HO15.19) cells were determined using the CellTiter-Glo Luminescent Cell Viability Assay (Promega cat. G7570) (Madison, WI, USA). Cells were seeded into a 96-well white plate with a clear bottom: 10,000 cells per well for the IMR32 cells cultured in EMEM supplemented with 10% FBS, 2000 HO15.19 cells per well in Eagle’s minimum essential medium (EMEM) supplemented with 10% FBS, and 2000 cells per well for the NCI-H660 neuroendocrine cells cultured in RPMI supplemented 5% FBS, 1% Insulin-Transferrin-Selenium (Thermo Fisher, 41400-045), 10nM b-estradiol (Sigma, E8875), 10nM hydrocortisone (Sigma H0888) and 1% matrigel. Following 24 h incubation, the cells were treated with serial dilutions of the derivatives along with the respective parental compound starting at 25 μM for 72 h. Cell Titer Glo was added to each well at a ratio of 1:1 and incubated on a shaker at RT for 2 min. Luminescence and IC50 was measured with the TECAN InfiniteM200 plate reader (Männedorf, Switzerland).

[3] = Microsomal stability assay; type: in vitro ADME, Mouse; settings: mouse liver microsomes, 1 µM compound
Procedure: A microsomal stability assay was performed using the Corning Gentest NADPH Regenerating System (Corning, #451220/41200) (Corning, NY, USA). Mouse liver microsomes (MLM) (Xenotech, M1000) (Kansas City, KS, USA) and compounds were diluted to a final concentration of 0.15 mg/mL and 1 μM respectively. These were prepared into a 500 μL solution with 100 mM potassium phosphate buffer (pH = 7.4). Imipramine was used as a control. NADPH solutions A and B were mixed in a 5:1 ratio, and 24 μL of the NADPH was added to each of the MLM/compound samples at 30 s intervals. At time points 10, 20, and 45 min, 100 μL of reaction was added to the stopping solution. Samples were centrifuged at 18,000× g and incubated at 4 °C for 10 min. Samples were then loaded onto a LC-MS 96-well plate for analysis.

[4] = Pharmacokinetics after IP and PO dosing; type: in vivo, male Balb/c mice; settings: 10 mg/kg; for Tmax: 75:25 PG/PEG 400 formulation; for Cmax: 70551 in 75:25 PG/PEG 400, 70619 in 20:80 Kolliphor EL
Procedure: In order to characterize VPC-70619 as a drug candidate against N-myc, its pharmacokinetic (PK) characteristics were evaluated in Balb/c mice following intraperitoneal (IP) and peroral (PO) administrations. As presented in Figure 5, we determined the PK properties of VPC-70619 and compared it to the parental molecule, VPC-70551. […] The clearance of 70551 for PO delivery was extremely slow, and we could not determine the T1/2 in the experimental conditions used for this assay. […] Therefore, VPC-70619 was deemed to have appropriate efficacy in vivo, and a better pharmacokinetic profile due to higher bioavailability for both oral and intraperitoneal administration.
Bienta Enamine Biology Services (Kyiv, Ukraine) conducted PK studies according to the Enamine PK study protocols and Institutional Animal Care and Use Guidelines. The PK studies were reviewed and approved by the Bienta Animal Care and Use Committee (BACUC) under the project identification codes PK-VPC-112618 (approved 17 December 2018) and PK-VPC-101119 (approved 21 October 2019), for VPC-70551 and […], respectively. Evaluation of 70619 and 70551 was conducted in male Balb/c mice through intraperitoneal (IP) and peroral (PO) administration. Measurements were taken at six time points: 5, 15, 60, 120, 240, and 360 min for IP; 15, 30, 60, 120, 240, and 480 min for PO. Four mice were included in each treatment group for each time point; one mouse each for IP and PO was included as a control. Initial target administration for both IP and PO was 10 mg/kg dose level, 2 mg/mL dose concentration, and 5 mL/kg dose volume. Concentration of the compounds was evaluated in the plasma samples using an LC-MS/MS system.

IMR32 cells = test: Cell viability (CellTiter-Glo), IMR32; type: cell-based; settings: Homo sapiens, IMR-32
Procedure: as §1, §2

IC50 [2] [µM] | SMILES | inhibition at 25 µM [1] [%] | transcription inhibition activity (in words) [2] | inhibition at 10 µM (HO15.19 cells) [%] | inhibition at 10 µM (IMR32 cells) [%] | further results
20 | O=C(NCc1cnn(Cc2ccccc2)c1)[C@@H]1COc2ccccc2O1 [compound 70215] | 92 | – | – | – | –
10 | O=C(CCc1c[nH]c2ccccc12)Nc1nc2ccccc2[nH]1 [compound 70223] | 103 | – | – | – | –
15 | C[C@H](CCc1ccccc1)NC(=O)[C@H]1CCCN(C(=O)CCc2c[nH]c3ccccc23)C1 [compound 70314] | 93 | – | – | – | –
20 | CC[C@@H]1Oc2cc(S(=O)(=O)N(C)CC(=O)N(C)Cc3ccccc3)c(C)cc2NC1=O [compound 70381] | 74 | – | – | – | –
20 | O=C(CCN1C(=O)/C(=C\c2ccccc2)SC1=S)NCCc1c[nH]c2ccccc12 [compound 70388] | 77 | – | – | – | –
9 | Cc1cccc(-c2cc(C(=O)Nc3ccc(S(=O)(=O)N4CCCCC4)cc3)n[nH]2)c1O [compound 70390] | 97 | – | – | – | –
10 | Fc1ccccc1CNC(=S)Nc1cccc(C(F)(F)F)c1 [compound 70465] | 92 | – | – | – | –
5 | FC(F)(F)c1cc(Br)cc(NC(=S)NCc2cccs2)c1 [compound 70495] | 100 | – | – | – | –
2 | O=C(Nc1cccc(C(F)(F)F)c1)Nc1cccc(C(F)(F)F)c1 [compound 70511] | 102 | promising inhibitory activity | – | – | cytotoxicity in Myc-negative HO15.19 (in words) (HO15.19 cells; counter-screen): highly cytotoxic profile
– | N#Cc1ccc(NNC(=O)c2cc(F)c(Cl)cc2F)c(C(F)(F)F)c1 [compound 70741] | – | recovered the inhibition activity | 14.5 | 16.4 | –
– | N#Cc1ccc(NNC(=O)c2ccc(I)c(F)c2)c(C(F)(F)F)c1 [compound 70742] | – | better inhibition activity | 71.8 | 26.1 | –
– | N#Cc1ccc(NNC(=O)c2ccc(Br)c(F)c2)c(C(F)(F)F)c1 [compound 70743] | – | strong increase in inhibition activity | 74.9 | 38.7 | –
– | N#Cc1ccc(NNC(=O)c2cc(C(F)(F)F)cc(C(F)(F)F)c2)c(C(F)(F)F)c1 [compound 70756] | – | better inhibition activity | 84.1 | 95.7 | –
– | N#Cc1ccc(NNC(=O)c2cc(Cl)cc([N+](=O)[O-])c2)c(C(F)(F)F)c1 [compound 70761] | – | better inhibition activity | 81 | 93.3 | –
– | N#Cc1ccc(NNC(=O)c2cc(F)c(Cl)c(F)c2)c(C(F)(F)F)c1 [compound 70767] | – | strong increase in inhibition activity | 40.3 | 31.6 | –
– | N#Cc1ccc(NNC(=O)c2cc(Cl)cc(Br)c2F)c(C(F)(F)F)c1 [compound 70768] | – | high transcription inhibition activity | 39.8 | 35.3 | –
– | N#Cc1ccc(NNC(=O)c2cc(C(F)(F)F)ccc2F)c(C(F)(F)F)c1 [compound 70769] | – | high transcription inhibition activity | 28.2 | 32.2 | –
– | N#Cc1ccc(NNC(=O)c2cc(F)c(Br)c(Cl)c2)c(C(F)(F)F)c1 [compound 70775] | – | strong increase in inhibition activity | 65.1 | 62.4 | –
– | N#Cc1ccc(NNC(=O)c2cc(Cl)cc(F)c2Br)c(C(F)(F)F)c1 [compound 70776] | – | high transcription inhibition activity | 26.1 | 27.4 | –
– | N#Cc1ccc(NNC(=O)c2cc(OC(F)F)cc(OC(F)F)c2)c(C(F)(F)F)c1 [compound 70792] | – | maintained good transcription inhibition activity | 79.5 | 84.9 | –
– | N#Cc1ccc(NNC(=O)c2cc(F)cc(C(F)(F)F)c2)c(C(F)(F)F)c1 [compound 70794] | – | better inhibition activity | 80.7 | 89.2 | –
– | N#Cc1ccc(NNC(=O)c2ccc(C(F)(F)F)cc2O)c(C(F)(F)F)c1 [compound 70797] | – | activity was maintained | 34.2 | 24.7 | –

SMILES | IC50 [2] [µM] | inhibition at 25 µM [1] [%] | transcription inhibition activity (in words) [2] | inhibition at 10 µM (HO15.19 cells) [%] | inhibition at 10 µM (IMR32 cells) [%] | further results
N#Cc1ccc(NNC(=O)c2ccc(C(F)(F)F)cc2)c(C(F)(F)F)c1 [compound 70551] | 4 | 98 | – | – | – | microsomal half-life (T1/2) ([3]; listed as VPC-70551): 2.33 h; half-life at 1 μM ([3]; mouse, pH 7.4, mouse liver microsomes, read-out: microsomal half-life (T1/2)): 2.35 h; half-life ([4]; male, Balb/c, mouse, plasma, ip, read-out: plasma half-life (T1/2) IP): 5.53 h; Tmax ([4]; male, Balb/c, mouse, plasma, IP, read-out: Tmax IP (converted)): 1 h; Cmax ([4]; male, Balb/c, mouse, plasma, IP, read-out: Cmax IP): 6220 ng/mL; Tmax ([4]; male, Balb/c, mouse, plasma, PO, read-out: Tmax PO (converted)): 8 h; Cmax ([4]; male, Balb/c, mouse, plasma, PO, read-out: Cmax PO): 2600 ng/mL; adverse effects / signs of toxicity in PK animals ([4]; single dose IP or PO): No obvious adverse effects
